The target of the experiment is T1, TbCLK1 (Trypanosoma brucei, UniProt Q382U0).
T1 construct: gene Tb11.01.4230; full-length, recombinant from E. coli (pET100)
As to the kind of experiment: in vitro kinase assay (γ-32P-ATP, myelin basic protein), […] min pre-incubation with […] ATP; also target engagement in intact parasites by competition with probe […]. It is filed as biochemical.

The values that follow come from article PMC3707081, “Hypothemicin, a fungal natural product, identifies therapeutic targets in Trypanosoma brucei” (eLife, 2013).

For orientation: IC50 means the midpoint of a concentration-inhibition curve. A high value points to a need for much substance.

T1 sequence (Q382U0 entry or part of it): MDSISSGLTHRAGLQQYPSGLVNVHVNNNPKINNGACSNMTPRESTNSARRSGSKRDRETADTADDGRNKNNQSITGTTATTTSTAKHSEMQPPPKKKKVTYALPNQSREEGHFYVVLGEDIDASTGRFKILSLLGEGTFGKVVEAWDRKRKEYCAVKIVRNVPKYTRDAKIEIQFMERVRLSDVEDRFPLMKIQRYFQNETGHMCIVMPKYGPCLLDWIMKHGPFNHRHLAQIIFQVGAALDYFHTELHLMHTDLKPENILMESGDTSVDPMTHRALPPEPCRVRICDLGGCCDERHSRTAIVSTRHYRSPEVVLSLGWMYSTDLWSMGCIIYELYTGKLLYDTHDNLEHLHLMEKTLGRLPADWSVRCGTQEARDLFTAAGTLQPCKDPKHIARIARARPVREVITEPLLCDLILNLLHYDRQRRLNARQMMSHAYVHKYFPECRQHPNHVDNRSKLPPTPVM

`COc1cc(O)c2c(c1)[C@H]1O[C@@H]1C[C@H](O)[C@H](O)C(=O)/C=C\C[C@H](C)OC2=O` [compound 1, hypothemycin]: the IC50 is 150 nM.
